Test results taken from patent US11021444B2, “Antiviral compounds” (priority 2013, dated 2021).
Like-named read-outs stand apart in the source and are kept apart here.

How the values were obtained:
RSV replicon = assay: microbe, parasite or virus in culture; type: cell-based; conditions: human respiratory syncytial virus, read-out: EC50, the concentration of the drug required for reducing RSV replicon RNA by 50%
[1] = Cytotoxicity Determination (CCK-8, without addition of virus); type: cell-based; conditions: human, 50% cytotoxicity concentration (CC50)
Outline: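 HEp-2 cells were seeded at 1,500 cells/well one day before compound addition. Compounds were tested without virus in duplicate over 7 points from 100 μM in 1/2 steps, with 1% final DMSO, 5 days at 37 °C, 5% CO2. Viability was read by CCK-8 after 3-4 hours.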

[2] = tested on: Respiratory Syncytial Virus (RSV) long strain; assay: microbe, parasite or virus in culture; type: cell-based; conditions: human respiratory syncytial virus, Tables A and B list compounds by EC50 band
Outline: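 HEp-2 cells infected with 100 TCID50 virus per well, compounds in duplicate, 9-point 1/3 dilutions from 100 μM or 1 μM, 1% DMSO. After 5 days at 37 °C, cell viability (CPE protection) read by CCK-8 absorbance at 450 nm, 630 nm background.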

recombinant RSV complex = recombinant RSV complex (Human respiratory syncytial virus A, UniProt P28887); assay: RSV Polymerase Inhibition Assay; type: biochemical
Chain of recombinant RSV complex (P28887 whole entry): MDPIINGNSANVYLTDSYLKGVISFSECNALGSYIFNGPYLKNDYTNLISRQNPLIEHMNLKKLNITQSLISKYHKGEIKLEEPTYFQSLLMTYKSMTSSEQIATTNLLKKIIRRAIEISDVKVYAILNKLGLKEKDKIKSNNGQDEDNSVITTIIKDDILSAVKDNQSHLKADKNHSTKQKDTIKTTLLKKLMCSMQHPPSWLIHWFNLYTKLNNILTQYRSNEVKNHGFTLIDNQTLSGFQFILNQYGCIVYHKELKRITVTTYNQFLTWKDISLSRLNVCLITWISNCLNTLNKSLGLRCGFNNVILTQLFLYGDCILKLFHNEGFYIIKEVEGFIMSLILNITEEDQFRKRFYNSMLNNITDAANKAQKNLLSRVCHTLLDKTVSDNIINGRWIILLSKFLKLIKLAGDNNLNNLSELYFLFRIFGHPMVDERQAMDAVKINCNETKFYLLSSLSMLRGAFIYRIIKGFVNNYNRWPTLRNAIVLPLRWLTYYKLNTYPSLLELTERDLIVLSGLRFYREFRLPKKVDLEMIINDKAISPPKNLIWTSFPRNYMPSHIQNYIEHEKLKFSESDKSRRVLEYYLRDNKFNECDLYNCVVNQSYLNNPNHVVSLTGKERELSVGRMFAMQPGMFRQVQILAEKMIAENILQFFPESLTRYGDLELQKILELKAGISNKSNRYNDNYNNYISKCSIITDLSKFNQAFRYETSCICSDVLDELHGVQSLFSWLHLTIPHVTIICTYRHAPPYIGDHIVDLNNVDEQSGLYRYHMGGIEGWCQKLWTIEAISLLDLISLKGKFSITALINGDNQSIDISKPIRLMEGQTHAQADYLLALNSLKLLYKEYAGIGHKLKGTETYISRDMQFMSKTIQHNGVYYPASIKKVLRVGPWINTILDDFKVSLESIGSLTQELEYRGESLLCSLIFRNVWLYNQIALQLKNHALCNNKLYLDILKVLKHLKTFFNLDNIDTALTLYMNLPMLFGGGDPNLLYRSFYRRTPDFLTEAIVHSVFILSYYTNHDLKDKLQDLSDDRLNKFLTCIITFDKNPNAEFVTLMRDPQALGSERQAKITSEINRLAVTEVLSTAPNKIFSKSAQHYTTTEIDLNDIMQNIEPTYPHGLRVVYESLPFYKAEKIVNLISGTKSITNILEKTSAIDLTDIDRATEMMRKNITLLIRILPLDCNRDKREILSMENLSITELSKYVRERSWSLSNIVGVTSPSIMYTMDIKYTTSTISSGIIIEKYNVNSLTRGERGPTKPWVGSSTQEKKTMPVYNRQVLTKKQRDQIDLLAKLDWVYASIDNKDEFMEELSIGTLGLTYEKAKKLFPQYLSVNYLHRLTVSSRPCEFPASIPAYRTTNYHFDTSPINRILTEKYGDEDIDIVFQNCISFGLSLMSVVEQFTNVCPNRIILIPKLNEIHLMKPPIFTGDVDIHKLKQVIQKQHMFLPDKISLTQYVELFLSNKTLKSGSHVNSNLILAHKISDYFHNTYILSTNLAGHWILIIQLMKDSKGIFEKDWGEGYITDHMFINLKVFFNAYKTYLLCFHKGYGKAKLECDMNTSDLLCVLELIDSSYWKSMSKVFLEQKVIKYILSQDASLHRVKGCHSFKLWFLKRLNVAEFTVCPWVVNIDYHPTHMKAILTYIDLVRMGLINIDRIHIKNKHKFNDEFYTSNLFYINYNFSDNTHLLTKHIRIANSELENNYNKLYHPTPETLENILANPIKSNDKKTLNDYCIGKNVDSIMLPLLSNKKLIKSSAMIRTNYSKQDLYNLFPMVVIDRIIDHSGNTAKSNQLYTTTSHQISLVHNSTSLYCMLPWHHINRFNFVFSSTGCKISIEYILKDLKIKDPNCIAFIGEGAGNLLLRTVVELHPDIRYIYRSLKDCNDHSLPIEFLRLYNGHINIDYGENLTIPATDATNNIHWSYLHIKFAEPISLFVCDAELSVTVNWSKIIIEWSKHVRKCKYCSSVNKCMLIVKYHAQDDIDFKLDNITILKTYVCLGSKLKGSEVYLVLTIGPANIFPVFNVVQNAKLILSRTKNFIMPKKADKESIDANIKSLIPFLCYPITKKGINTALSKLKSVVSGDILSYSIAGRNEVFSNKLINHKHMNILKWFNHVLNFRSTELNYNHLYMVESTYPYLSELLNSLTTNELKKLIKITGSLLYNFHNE
Chain of recombinant RSV complex (P03421 whole entry, further chain): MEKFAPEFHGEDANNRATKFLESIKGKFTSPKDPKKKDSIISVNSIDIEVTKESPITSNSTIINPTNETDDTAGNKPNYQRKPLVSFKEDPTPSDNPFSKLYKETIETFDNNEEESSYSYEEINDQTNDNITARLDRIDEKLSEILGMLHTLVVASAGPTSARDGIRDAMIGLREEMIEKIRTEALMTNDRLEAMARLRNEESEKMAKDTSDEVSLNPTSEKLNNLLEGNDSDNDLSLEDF
Outline: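 10 nM recombinant RSV polymerase complex in Tris-HCl pH 7.5, 6 mM MgCl2 with RNA oligonucleotide template and radionucleotides, incubated 2 h at 30 °C with increasing inhibitor concentrations. Reaction stopped with EDTA; radiolabeled RNA product counted by scintillation.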

[3] = 120 h, read-out: 50% effective concentration (EC50), HEp-2 cells infected with RSV long strain, 5 days, CCK-8 readout
[4] = HEp-2, 120 h, read-out: 50% effective concentration (EC50), HEp-2 cells infected with RSV long strain, 5 days, CCK-8 readout

Row | SMILES | EC50 (RSV replicon) [µM] | CC50 at 5 days [1] [µM] | EC50 [2, 3] [µM] | IC50 (recombinant RSV complex) [µM] | EC50 [2, 4] [µM]
1 | COc1cc(C(=O)NCC(C)(O)c2ccc(OC)c(-c3ccc(F)c(Cl)c3)n2)ccc1OCCO (racemic) [Compound 120] | < 1 | > 100 | < 1 | < 1 | –
2 | CCC(O)(CNC(=O)c1ccc(OCCF)c(OC)c1)c1ccc(OC)c(-c2ccc(F)c(Cl)c2)n1 (racemic) [Compound 122] | < 1 | 10 to 100 | – | < 1 | < 1
3 | COc1cc(C(=O)NCC(C)(O)c2cc3c(c(-c4ccc(F)c(Cl)c4)n2)OCC3(C)C)ccc1OCCO (racemic) [Compound 166] | < 1 | 10 to 100 | – | < 1 | < 1
4 | CCC(O)(CNC(=O)c1ccc(OCCF)c(OC)c1)c1ccc(OC)c(-c2ccc(F)c(Cl)c2)n1 (single isomer, unassigned) [Compound 122a] | < 1 | 10 to 100 | – | < 1 | < 1
5 | COc1cc(C(=O)NCC(O)(c2ccc(OC)c(-c3ccc(F)c(Cl)c3)n2)C2CC2)ccc1OCC(N)=O (single isomer, unassigned) [Compound 431] | < 1 | 10 to 100 | – | < 1 | < 1
6 | COc1cc(C(=O)NCC(O)(c2cc(C(C)(N)CF)cc(-c3ccc(F)cc3)n2)C(F)(F)F)ccc1OCCO (single isomer, unassigned) [Compound 664] | < 1 | 10 to 100 | – | < 1 | < 1
7 | CCc1ccc(C(C)(O)CNC(=O)c2ccc(OC)c(OC)c2)nc1-c1csc2c(F)cccc12 (stereo not drawn) [Compound 115] | < 1 | 10 to 100 | – | < 1 | < 1
8 | COc1cc(C(=O)NCC(C)(O)c2ccc(OC)c(-c3ccc(F)c(Cl)c3)n2)ccc1OCCF (stereo not drawn) [Compound 119] | < 1 | 10 to 100 | – | < 1 | < 1
9 | COc1cc(C(=O)NCC(O)(c2ccc(OC)c(-c3ccc(F)c(Cl)c3)n2)C2CC2)ccc1OCCF (stereo not drawn) [Compound 123] | < 1 | > 100 | – | < 1 | < 1
10 | CC#CC(O)(CNC(=O)c1ccc(OCCF)c(OC)c1)c1ccc(OC)c(-c2ccc(F)c(Cl)c2)n1 (stereo not drawn) [Compound 124] | < 1 | 10 to 100 | – | < 10 | < 1
11 | COc1cc(C(=O)NCC(O)(c2ccc(OC)c(-c3ccc(F)c(Cl)c3)n2)C(C)C)ccc1OCCF (stereo not drawn) [Compound 125] | < 1 | 10 to 100 | – | < 1 | < 1
12 | C=CC(O)(CNC(=O)c1ccc(OCCF)c(OC)c1)c1ccc(OC)c(-c2ccc(F)c(Cl)c2)n1 (stereo not drawn) [Compound 126] | < 1 | 10 to 100 | – | < 1 | < 1
13 | C#CC(O)(CNC(=O)c1ccc(OCCF)c(OC)c1)c1ccc(OC)c(-c2ccc(F)c(Cl)c2)n1 (stereo not drawn) [Compound 127] | 1 to 50 | 10 to 100 | – | < 1 | < 1
14 | COc1ccc(C(=O)NCC(=O)c2nc(-c3csc4c(F)cccc34)c3ccccn23)cc1OC [Compound 130] | < 1 | 10 to 100 | < 1 | < 1 | –
15 | COc1cc(C(=O)NCC(=O)c2cc3c(c(-c4ccc(F)c(Cl)c4)n2)OCC3(C)C)ccc1OCCO [Compound 140] | < 1 | 10 to 100 | < 1 | < 1 | –
16 | COc1cc(C(=O)NCC(C)(O)c2cccc(-c3csc4c(F)cccc34)n2)ccc1OCCO (stereo not drawn) [Compound 143] | < 1 | 10 to 100 | – | < 1 | < 1
17 | COc1cc(C(=O)NCC(O)(CO)c2ccc(OC)c(-c3ccc(F)c(Cl)c3)n2)ccc1OCCO (stereo not drawn) [Compound 176] | < 1 | > 100 | – | < 1 | < 1
18 | COc1cc(C(=O)NCC(O)(CNC2CC2)c2ccc(OC)c(-c3ccc(F)c(Cl)c3)n2)ccc1OCCO (stereo not drawn) [Compound 189] | < 1 | > 100 | – | < 1 | < 1
19 | COc1cc(C(=O)NCC(O)(Cn2ccnc2)c2ccc(OC)c(-c3ccc(F)c(Cl)c3)n2)ccc1OCCO (stereo not drawn) [Compound 191] | < 1 | > 100 | – | < 1 | < 1
20 | COc1cc(C(=O)NCC(O)(Cn2ccnn2)c2ccc(OC)c(-c3ccc(F)c(Cl)c3)n2)ccc1OCCO (stereo not drawn) [Compound 192] | < 1 | > 100 | – | < 1 | < 1

Row | SMILES | EC50 (RSV replicon) [µM] | CC50 at 5 days [1] [µM] | EC50 [2, 3] [µM] | IC50 (recombinant RSV complex) [µM] | EC50 [2, 4] [µM]
21 | COc1cc(C(=O)NCC(O)(Cn2nccn2)c2ccc(OC)c(-c3ccc(F)c(Cl)c3)n2)ccc1OCCO (stereo not drawn) [Compound 193] | < 1 | 10 to 100 | – | < 1 | < 1
22 | COc1cc(C(=O)NCC(O)(Cn2cncn2)c2ccc(OC)c(-c3ccc(F)c(Cl)c3)n2)ccc1OCCO (stereo not drawn) [Compound 194] | < 1 | > 100 | – | < 1 | < 1
23 | COc1cc(C(=O)NCC(O)(CNC(C)=O)c2ccc(OC)c(-c3ccc(F)c(Cl)c3)n2)ccc1OCCO (stereo not drawn) [Compound 195] | < 1 | > 100 | – | < 1 | < 1
24 | COc1cc(C(=O)NCC(O)(c2cc3c(c(-c4ccc(F)c(Cl)c4)n2)OCC3(C)C)C(F)(F)F)ccc1OC1CCNC1=O (stereo not drawn) [Compound 200] | < 1 | 10 to 100 | < 1 | < 1 | –
25 | COc1cc(C(=O)NCC(O)(c2cc3c(c(-c4ccc(F)c(Cl)c4)n2)OCC3(C)C)C(F)(F)F)cc2cccnc12 (stereo not drawn) [Compound 208] | < 1 | 10 to 100 | – | < 1 | < 1
26 | COc1cc(C(=O)NCC(O)(c2cc3c(c(-c4ccc(F)c(Cl)c4)n2)OCC3(C)C)C(F)(F)F)ccc1OC1CC1 (stereo not drawn) [Compound 209] | < 1 | > 100 | – | < 1 | < 1
27 | COc1cc(C(=O)NCC(O)(c2cc3c(c(-c4ccc(F)c(Cl)c4)n2)OCC3(C)C)C(F)(F)F)ccc1OCC(C)O (stereo not drawn) [Compound 211] | < 1 | 10 to 100 | – | < 1 | < 1
28 | COc1cc(C(=O)NCC(O)(Cn2cccn2)c2cc3c(c(-c4ccc(F)c(Cl)c4)n2)OCC3(C)C)ccc1OC1CCNC1=O (stereo not drawn) [Compound 218] | < 1 | 10 to 100 | – | < 1 | < 1
29 | COc1cc(C(=O)NCC(=O)c2cc3c(c(-c4ccc(F)c(Cl)c4)n2)OCC3(C)C)cc2cccnc12 [Compound 220] | 1 to 50 | > 100 | < 1 | < 1 | –
30 | COc1cc(C(=O)NCC(O)(c2cc3c(c(-c4ccc(F)c(Cl)c4)n2)OCC3(C)C)C2CC2)ccc1OC1CCNC1=O (stereo not drawn) [Compound 223] | < 1 | 10 to 100 | – | < 1 | < 1
31 | COc1cc(C(=O)NCC(O)(c2cc3c(c(-c4ccc(F)c(Cl)c4)n2)OCC3(C)C)C2CC2)cc2cccnc12 (stereo not drawn) [Compound 224] | < 1 | 10 to 100 | – | < 1 | < 1
32 | COc1cc(C(=O)NCC(O)(Cn2ccnc2)c2cc3c(c(-c4ccc(F)c(Cl)c4)n2)OCC3(C)C)cc2cccnc12 (stereo not drawn) [Compound 226] | < 1 | 10 to 100 | – | < 1 | < 1
33 | COc1cc(C(=O)NCC(C)(O)c2cc3c(c(-c4c[nH]c5c(F)cccc45)n2)OCC3(C)C)ccc1OCCF (stereo not drawn) [Compound 228] | < 1 | > 100 | – | < 1 | < 1
34 | COc1ccc(C(O)(CNC(=O)c2ccc(OC[C@@H](C)O)c(Cl)c2)C(F)(F)F)nc1-c1ccc(F)c(Cl)c1 (stereo partly drawn) [Compound 232] | < 1 | 10 to 100 | – | < 1 | < 1
35 | COc1ccc(C(O)(CNC(=O)c2ccc(OCC(N)=O)c(Cl)c2)C(F)(F)F)nc1-c1ccc(F)c(Cl)c1 (stereo not drawn) [Compound 237] | < 1 | 10 to 100 | – | < 1 | < 1
36 | COc1cc(C(=O)NCC(O)(c2ccc(OC)c(-c3ccc(F)c(Cl)c3)n2)C(F)(F)F)ccc1OCC(N)=O (stereo not drawn) [Compound 240] | < 1 | 10 to 100 | < 1 | < 1 | –
37 | COc1cc(C(=O)NCC(O)(c2ccc(OC)c(-c3ccc(F)c(Cl)c3)n2)C2CC2)ccc1OCCO (stereo not drawn) [Compound 241] | < 1 | 10 to 100 | – | < 1 | < 1
38 | COc1cc(C(=O)NCC(O)(c2ccc(OC)c(-c3ccc(F)c(Cl)c3)n2)C(F)(F)F)ccc1OC1CC(F)(F)C1 (stereo not drawn) [Compound 244] | < 1 | > 100 | – | < 1 | < 1
39 | COc1cc(C(=O)NCC(O)(c2ccc(OC)c(-c3ccc(F)c(Cl)c3)n2)C(F)(F)F)ccc1OC1CCC1 (stereo not drawn) [Compound 245] | < 1 | > 100 | – | < 1 | < 1
